Source: US8450502B2, “Pharmaceutical compositions for inhibiting angiogenesis” (Industry-Academic Cooperation Foundation Yonsei University, priority 2008, dated 2013)

What was measured:
[1] = target: T1, mitochondrial protein QP-C (Homo sapiens, UniProt P14927); experiment: Competitive binding assay by fluorescent staining in HUVECs; type: cell-based; settings: for Inhibition of binding between coumarin-terpestacin and QP-C (blue fluorescence in the cytoplasm): HUVEC, pretreatment 24 hours with HDNT 10 μM or terpestacin 30 μM, coumarin-terpestacin 20 μM 2 hours
T1 construct: endogenous in cells; host or cells: HUVEC
T1 sequence (P14927 1-111): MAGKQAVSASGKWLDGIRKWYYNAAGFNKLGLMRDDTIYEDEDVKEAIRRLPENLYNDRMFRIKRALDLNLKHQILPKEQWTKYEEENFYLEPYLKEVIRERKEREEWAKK
Procedure: Human umbilical vein endothelial cells (HUVEC) were seeded on a 24-well plate (2×10^4 cells/well) and cultured in EBM-2 (LONZA®) medium containing 10% fetal bovine serum (INVITROGEN®). Then, the cells were washed with PBS buffer (pH 7.4), and the culture medium was replaced with a fresh one. The inventive compound HDNT (10 μM) or the compound terpestacin (30 μM) binding to QP-C was added to each well and the cells were incubated for 24 hours. A fluorescent dye coumarin (20 μM) and coumarin-conjugated terpestacin (20 μM) were each added to the control group and the treated group, followed by incubation for another 2 hours. The cells were washed with PBS buffer. Fluorescent intensity was observed under an IX70 fluorescent microscope (OLYMPUS®) and a microscopic image was taken (see FIG. 7).

[2] = test system: human umbilical vein endothelial cells (HUVEC); experiment: Tube formation of human umbilical vein endothelial cells (VEGF-induced, Matrigel); type: cell-based; settings: VEGF 30 ng/mL, HDNT 2.5, 5 μM, 8 hours
Procedure: A 48-well plate was coated with 150 μl of Matrigel (10 mg/mL, Collaborative Biomedical Products), followed by polymerization at 37° C. for 2 hours. […] The cells were cultured in an incubator for 8 hours while observing morphological changes of the cells under a microscope.

[3] = test system: human umbilical vein endothelial cells (HUVEC); experiment: HUVEC invasion assay (Transwell, VEGF); type: cell-based; settings: VEGF 30 ng/mL, HDNT 2.5, 5 μM, 18 hours
Procedure: Invasion of human umbilical vein endothelial cells (HUVEC) was measured in vitro using a TRANSWELL® chamber system (Corning Costar) equipped with a polycarbonate filter. First, a lower part of the filter was coated with 10 μl of gelatin (10 mg/mL) for 1 hour, and an upper part of the filter was coated with 10 μl of MATRIGEL® (3 mg/mL) for 2 hours. […] The coated filter was placed on the TRANSWELL®, and HUVECs (1×10^5 cells/well) were inoculated on the upper part of the filter, followed by cell culture in an incubator for 18 hours. Then, the cells were fixed with 70% methanol and stained with hematoxylin/eosin. Total cells in one filter were microscopically counted to measure a degree of cell invasion (see FIG. 4).

[4] = target: T2, purified QP-C protein (Homo sapiens, UniProt P14927); experiment: Competitive binding assay by surface plasmon resonance; settings: compound 25 μM, QP-C protein 25 μM, biotinylated terpestacin 100 μM immobilized
T2 construct: GST (N, cleaved yes); made in house; host or cells: E. coli BL21
T2 sequence (P14927 1-111): T1 sequence (P14927 1-111)
Procedure: Using, liver tissue cDNA library as a template, a QP-C gene (GENBANK® Accession No. NM_006294 was amplified by polymerase chain reaction (PCR). Sequences of PCR primers used herein are as follows: forward primer 5′-[…]-3′, and reverse primer 5′-[…]-3′. The QP-C gene was inserted into a multi cloning site (EcoRI/XhoI site) of a pGEX-4T1 vector (Amersham Pharmacia) which was then transformed into E. coli BL21 for protein expression, IPTG (1 mM) was added to the LB culture OD600=0.6) of the transformed bacteria, followed by shaking culture at 37° C. for 4 hours. The cells were disrupted using a sonicator and the expressed GST/QP-C fusion protein was purified by addition of glutathione agarose heads (SIGMA®). In order to remove a GST portion of the fusion protein, thrombin (Amersham Pharmacia) was added thereto at room temperature, followed by overnight stirring. Only the supernatant containing the QP-C protein was recovered by centrifugation (see FIG. 2). […]
The binding sensorgram containing association and dissociation curves was obtained by BIACORE® 2000, and 50 mM NaOH (5 μl) was poured on the sensor chip surface to result in regeneration. […] A surface plasmon resonance response curve was analyzed using BIACORE® Evaluations software, version 3.1 (see FIG. 8).

[5] = test system: mitochondrial membrane potential of HUVECs; experiment: Determination of mitochondrial membrane potential (JC-1 staining); type: cell-based, human; settings: HUVEC, HDNT 1, 5, 10 μM, 4 hours
Procedure: Human umbilical vein endothelial cells (HUVEC) were seeded on a 24-well plate (2×10^4 cells/well) and cultured in EBM-2 (LONZA®) medium containing 10% fetal bovine serum (INVITROGEN®). Then, the cells were washed with PBS buffer (pH 7.4) and the culture medium was then replaced with a fresh one. The inventive compound HDNT (1, 5, 10 μM) was added to the culture medium and the cells were incubated for 4 hours. In order to measure changes of the mitochondrial membrane potential, the cells were stained with […] a lipophilic cationic probe 5,5′6,6′-tetrachloro-1,1′,3,3′-tetraethylbenzimidazole-carbocyanine iodide (JC-1, MOLECULAR PROBES®) for 15 min. The carbocyanine cationic dye forms a red fluorescent J-aggregate at a hyperpolarization membrane potential (to −140 mV), and the dye maintains a green fluorescent monomeric form at a depolarization membrane potential (to −100 mV). The stained cells were washed twice with PBS buffer. A microscopic image (×100) was obtained under an IX70 fluorescent microscope OLYMPUS®) (see FIG. 5).

[6] = test system: QP-C-expressing bacteriophage T7 (human QP-C); experiment: Competitive binding assay by phage display; settings: competitor 200 μM, biotinylated terpestacin 5 μM immobilized
Procedure: Bacteriophage T7 (NOVAGEN®) was purchased which encodes cDNA library obtained from live different human tissues (hepatoma, normal liver, dementia brain, normal brain, and normal stomach). A host cell E. coli BLT5615 was infected with Bacteriophage followed by amplification. Biotinylated terpestacin (5 μM) in TBS buffer (pH 7.5) was immobilized on a streptavidin-coated 96-well plate (Pierce Biotechnology), and then the amplified, bacteriophage T7 library (6×1.0^9 pfu/mL) was added to the terpestacin-immobilized wells. After being stirred at room temperature for 1 hour, bacteriophage T7 particles which were not hound to terpestacin were washed with TBS buffer to remove the non-bound bacteriophage T7 particles. Terpestacin-bound bacteriophage T7 particles were elated for 1 hour with addition of terpestacin (100 μM) dissolved in TBS buffer. The elated bacteriophage T7 particles were infected into E. coli strain BLT5615 cultured on LB agar medium. The thus-formed bacteriophage T7 plaques were isolated and DNA sequences were analyzed to obtain bacteriophage expressing a ubiquinone-binding protein (QP-C) of the mitochondria complex III.
QP-C-expressing bacteriophage T7 was infected into a host cell E. coli BLT5615, followed by amplification. […] The thus-formed bacteriophage plaques were counted and the results were compared between the treated group and the control group (see FIG. 6).

[7] = test system: HIV; settings: cited from earlier work
[8] = test system: human umbilical vein endothelial cells (HUVEC); settings: cited from earlier work
[9] = test system: embryonic chick chorioallantoic membrane (CAM); settings: cited from earlier work

Compound | Fluorescence staining of HUVECs ([1]; 20 μM, 2 hours) | Inhibition of binding between coumarin-terpestacin and QP-C (blue fluorescence in the cytoplasm) [1] | VEGF-mediated tube formation of HUVECs [2] | VEGF-mediated invasion of HUVECs [3] | Inhibition of the binding between biotin-terpestacin and QP-C protein [4] [%] | Change of mitochondrial membrane potential (JC-1 red/green fluorescence) [5] | Inhibition of binding between biotinylated terpestacin and QP-C-expressing bacteriophage T7 [6] | Formation of syncytium during HIV infections [7] | inhibition at 25 µM ([4]; read-out: Inhibition of the binding between biotin-terpestacin and QP-C protein) [%] | Angiogenic responses of HUVEC in vitro [8] | Angiogenesis of embryonic chick chorioallantoic membrane (CAM) in vivo [9]
C/C1=C/CC/C(C)=C/CC2(C)C(=O)C(O)=C(C(C)COC(=O)CCCCCNC(=O)CCCCCNC(=O)Cc3c(C)c4ccc(N)cc4oc3=O)C2C/C=C(\C)C(O)CC1 (stereo not shown) [coumarin-terpestacin] | intense blue fluorescence in the cytoplasm | – | – | – | – | – | – | – | – | – | –
O=C1Sc2ccc(S(=O)(=O)Nc3ccc(O)c4ccccc34)c3cccc1c23 [HDNT, 6-((1-hydroxynaphthalen-4-ylamino)dioxysulfone)-2H-naphtho[1,8-bc]thiophen-2-one] | – | blue fluorescence was significantly decreased | inhibited VEGF-mediated tube formation and invasion of HUVECs in a concentration-dependent manner | inhibited VEGF-mediated tube formation and invasion of HUVECs in a concentration-dependent manner | 40 | disrupts the mitochondrial membrane potential | effectively inhibited | – | – | – | –
C/C1=C\C[C@]2(C)C(=O)C(O)=C([C@H](C)CO)[C@H]2C/C=C(\C)[C@@H](O)CC/C(C)=C/CC1 [terpestacin] | – | significant attenuation of blue fluorescence | – | – | – | – | significantly inhibited | inhibit the formation of syncytium | ≤ 60 | strongly inhibits angiogenic responses | strongly inhibits angiogenesis
